Assay results from patent US20220144902A1, “METHOD FOR INDUCING MUSCULAR CELLS USING CELLS IN SPOT URINE” (NATIONAL CENTER OF NEUROLOGY AND PSYCHIATRY, priority 2018, published 2022).

Experiments:
[1] = test system: MYOD1-positive urine-derived cells; assay: Promotion of myotube induction by low molecular compounds, myosin heavy chain immunocytochemistry; format: cell-based, human; conditions: compound added to differentiation medium with doxycycline; FIG. 3A 1 μM, FIG. 3B 10 μM
Method: (§1) The MYOD1-positive urine-derived cells were plated onto a collagen-coated culture dish or plate and cultured in a differentiation medium supplemented with doxycycline (e.g., 1 μg/ml) (the medium containing high-glucose-containing DMEM with GlutaMAX-I (Thermo Fisher Scientific; 10569-010), 5% horse serum, ITS Liquid Media Supplement (Sigma; 13146), and 1 μg/ml doxycycline) to induce the myotubes. Whether or not muscular differentiation could be promoted with the addition of a low molecular compound in a compound library (Sigma; S990043-EPI1) to the differentiation medium was examined. The low molecular compound was added at a final concentration of 0.1, 1, or 10 μM. Myotube induction was evaluated by immunocytochemistry and Western blotting.
For immunocytochemistry, cultured cells were washed in PBS, fixed in 4% paraformaldehyde, and then incubated with the addition of 0.1% Triton-X at room temperature for 10 minutes. The anti-myosin heavy chain antibody (1:50, R&D, Minneapolis, U.S.A.; MAB4470) and the anti-dystrophin antibody (1:30, Novocastra, Newcastle, UK; NCL-DYS1) were used as primary antibodies, and Alexa Fluor 546 goat anti-mouse IgG (H+L) (1:300, Invitrogen; A11003) was used as a secondary antibody. Nuclear staining was performed with the use of Hoechst 33342. An image was obtained using a fluorescence microscope (BZ-9000 or BZ-X800, KEYENCE, Osaka, Japan) and analyzed using the BZ-X Analyzer (KEYENCE).
As a result, it was founded that a degree of muscular differentiation evaluated in terms of the myosin heavy chain protein expression level by immunocytochemistry was enhanced to a significant extent with the addition of the epigenetic regulatory compound(s) to the differentiation medium (FIGS. 3 and 4). […] Also, effects of histone methyltransferase inhibitors (GSK343, SGC707, furamidine dihydrochloride, UNC2327, E7438, and MI-2 (menin-MLL inhibitor)), histone demethylase inhibitors (IOX 1 and GSK-J1), histone deacetylase (HDAC) inhibitors (VORINOSTAT, LMK-235, CAY10603, and BRD73954), SIRT2 inhibitor (SirReal 2), and PARP inhibitor (EB47) were observed. In FIG. 3, a horizontal axis represents a type of a compound added, and a vertical axis represents an area of a myosin heavy chain-positive region determined by immunocytochemistry. […] Statistical analysis was performed by a Kruskal-Wallis test at a significance level of p<0.05. “*,” “**,” and “***” indicate p<0.05, p<0.01, and p<0.001, respectively.

[2] = test system: myotubes induced from urine-derived cells obtained from 4 healthy subjects; assay: Promotion of myotube induction, Western blotting of myosin heavy chain and dystrophin; format: cell-based, human; conditions: in the presence of DZNep; urine-derived cells from 4 healthy subjects
Method: as §1
The effects of DZNep on promoting myotube induction were also examined by Western blotting. […] The total protein concentration was measured using the BCA protein assay kit (Thermo Fisher Scientific; 23227), denaturation was performed using NuPAGE® LDS Sample Buffer (Thermo Fisher Scientific; NP0007), SDS-PAGE was performed on 3% to 8% NuPAGE® Novex Tris-Acetate Gel (Invitrogen; EA03785BOX), and the resultant was transferred onto a PVDF membrane (Millipore, Billerica, Mass., U.S.A.; IPVH304F0). […] After the antibody reaction, a band of interest was detected using the ECL Prime Western Blotting Detection Reagent (GE Healthcare, UK; RPN2232). […]

Row | Compound | degree of muscular differentiation evaluated in terms of the myosin heavy chain protein expression level by immunocytochemistry [1] | dystrophin expression by Western blotting [2] | myosin heavy chain expression by Western blotting [2]
1 | O=C(NO)c1cccc(C(=O)NCCc2ccccc2)c1 [BRD73954] | observed | – | –
2 | CC(C)(C)OC(=O)Nc1ccc(-c2cc(C(=O)NCCCCCCC(=O)NO)no2)cc1 [CAY10603] | observed | – | –
3 | Cl.Nc1nccc2c1ncn2[C@@H]1C=C(CO)[C@@H](O)[C@H]1O [DZNep, 3-deazaneplanocin A hydrochloride] | high | expressed at high levels | expressed at high levels
4 | CCN(c1cc(-c2ccc(CN3CCOCC3)cc2)cc(C(=O)NCc2c(C)cc(C)[nH]c2=O)c1C)C1CCOCC1 [E7438] | observed | – | –
5 | Cl.Cl.Nc1ncnc2c1ncn2[C@@H]1O[C@H](C(=O)N2CCN(CC(=O)Nc3cccc4c3CNC4=O)CC2)[C@@H](O)[C@H]1O [EB47] | observed | – | –
6 | CCCc1cc(C)[nH]c(=O)c1CNC(=O)c1cc(-c2ccnc(N3CCN(C)CC3)c2)cc2c1cnn2C(C)C [GSK343] | observed | – | –
7 | O=C(O)CCNc1cc(N2CCc3ccccc3CC2)nc(-c2ccccn2)n1 [GSK-J1] | observed | – | –
8 | O=C(O)c1ccc(O)c2ncccc12 [IOX 1] | observed | – | –
9 | Cc1cc(C)cc(C(=O)NOCCCCCC(=O)NO)c1 [LMK-235] | observed | – | –
10 | CCCc1cc2c(N3CCN(C4=NCC(C)(C)S4)CC3)ncnc2s1 [MI-2 (menin-MLL inhibitor)] | observed | – | –
11 | O=C(NCC(=O)N1CCCC1)Nc1ccc2cnccc2c1 [SGC707] | observed | – | –
12 | Cc1cc(C)nc(SCC(=O)Nc2ncc(Cc3cccc4ccccc34)s2)n1 [SirReal 2] | observed | – | –
13 | O=C(CCCCCCC(=O)Nc1ccccc1)NO [VORINOSTAT] | observed | – | –
14 | UNC2327 | observed | – | –
